Structures can show the parent of a compound that is named as a salt.
Assays:
HEK 293 cells [1] = test: TPC assay (total protein content, proliferation); format: cell-based, human
Procedure: (§1) The cytotoxic potential of the veterinary drug and its mixtures with cannabidiol at two non-toxic concentrations: 1.56 and 3.15 µg/mL, on the human SH-SY5Y, HepG2 and HEK 293 cell lines was assessed by decreased viability of the cells within five biochemical endpoints: mitochondrial activity and lysosomal activity (MTT assays, reducing the tetrazolium dye MTT 3-(4,5-dimethylthiazol-2-yl)-2,5-diphenyltetrazolium bromide and neutral red uptake (NRU) assays), total protein content (TPC assay), cellular membrane integrity (leakage lactate dehydrogenase (LDH) assay) and DNA synthesis (the bromodeoxyuridine/5-bromo-2′-deoxyuridine incorporation into the DNA cells (BrdU) assay) after 72 h exposition. Data obtained from the measurement of the optical density in these assays were transformed to percentages in relation to the negative control group (0.1% DMSO in medium), considered to be 100% for the MTT, NRU, TPC and BrdU assays and 0% for the LDH assay. 1% Trition-X 100 solution in medium was used as the positive controls, (Figure 3).
(§2) The human neuroblastoma (SH-SY5H), hepatoma (HepG2) and kidney cells (HEK 293) cells were purchased from the American Type Culture Collection: ATCCCRL-2266,ATCC HB-8065 and ATCC CRL-1573, respectively. These cells were cultured in Minimum Essential Medium Eagle (MEME) (ATCC). The media were supplemented with 10% FBS, 1% L-glutamine (and 1% antibiotic solution (P4333 Sigma). The cells were maintained in 75 cm^2 cell culture flasks (NUNC) in a humidified incubator at 37 °C in an atmosphere of 5% CO2. The medium was refreshed every two or three days, and the cells were subcultured by 0.25% trypsin–0.02% EDTA after reaching 70–80% confluence. Single cell suspensions were prepared and adjusted to a density of 2 × 10^5 cell/mL^−1 (SH-SY5H), 1 × 10^5 cell/mL^−1 (HepG2) and 1 × 10^5 cell/mL^−1 (HEK-293). The cell suspension was transferred to 96-well plates (100 µL/well) or Lab-Tek chamber slides (8 wells) (Nunc) for staining and incubated for 24 h before the exposure to the studied compounds. Stock solutions of tiamulin fumarate and cannabidiol were prepared in DMSO and diluted with culture medium to obtain a concentration range from 1.56 to 200 µg/mL and 1.56 or 3.156 µg/mL, respectively. The selection of tiamulin concentrations was based on data from the literature and pilot studies. The final concentration of DMSO was 0.1% in the medium. The same final concentrations of the solvent and the 1% Trition-X 100 solution were used as the negative and positive controls, respectively. A total of 500 µM hydrogen peroxide (H2O2) in was used as the positive control in the DCFH assay. […] As a negative control, cultured cells were grown in the absence of studied compounds. Each concentration was tested in six replicates in three independent experiments. Cytotoxicity was assessed after 72 h of exposure of the cells to the compounds. The medium was not changed during the incubation time.
(§3) This assay is based upon staining the total cellular protein (proliferation). After the incubation, the medium containing the drug was removed, and 100 µL Coomassie brilliant blue R-250 dye was added to each well. The plate was shaken for 10 min. Then, the stain was removed and the cells were rinsed twice with 100 µL of washing solution (glacial acetic acid/ethanol/water, 5:10:85, v:v:v). After that, 100 µL of the desorbing solution (1 M potassium acetate) was added, and plates were shaken again for 10 min. The absorbance was measured at 595 nm in a Synergy 2 Multi-Mode Microplate Reader (BioTek® Instruments Inc., Winooski, VT, USA) using a blank as a reference. Cytotoxicity was expressed as a percentage of the negative control (0.1% DMSO in medium).
(§4) This study was performed in three independent experiments. The obtained results are presented as mean values ± SD (standard deviation). […]

HepG2 cells [2] = test: TPC assay (total protein content, proliferation); format: cell-based, human; conditions: HepG2, 72 h
Procedure: as §1, §2, §3, §4

SH-SY5Y cells [3] = test: TPC assay (total protein content, proliferation); format: cell-based, human; conditions: 72 h
Procedure: as §1, §2, §3, §4

HEK 293 cells [4] = test: MTT assay (mitochondrial activity); format: cell-based, human
Procedure: as §1, §2
(§5) The metabolic activity of living cells was assessed by the measurement of the activity of dehydrogenases. After the incubation of the cells with the studied compounds, 10 μL of the MTT solution (5 mg/mL in PBS) was added to each well of 96-well plates and incubated. After 3 h, the MTT solution was removed, and the intracellular formazan crystals were dissolved in 100 µL DMSO. The plate was shaken for 15 min at room temperature and transferred to a Synergy 2 Multi-Mode Microplate Reader (BioTek® Instruments Inc., Winooski, VT, USA) to measure the absorbance at 570 nm, using a blank as a reference. Cytotoxicity was expressed as a percentage of the negative control (0.1% DMSO in medium).
as §4

HepG2 cells [5] = test: MTT assay (mitochondrial activity); format: cell-based, human; conditions: HepG2, 72 h
Procedure: as §1, §2, §5, §4

SH-SY5Y cells [6] = test: MTT assay (mitochondrial activity); format: cell-based, human; conditions: 72 h
Procedure: as §1, §2, §5, §4

[7] = tested on: SH-SY5Y, HepG2 and HEK-293 cells; test: Cellular morphology, May-Grünwald-Giemsa staining; format: cell-based, human; conditions: May-Grunwald staining
Procedure: This method was used to illustrate the changes that occurred in cell morphology under the influence of the tested compounds. The staining was performed on 24-well plates. The cells at a density of 1 × 10^5 cells/mL were used. After 24 h of incubation with the examined drugs or without them (control), the culture media was removed and the cells were stained with 1 mL of May–Grünwald dye for 3 min at room temperature. Then, 1 mL of deionized water was added to each plate. After 3 min of incubation at room temperature, the liquid was removed. All the plates were rinsed with deionized water, and then the cells were stained with Giemsa dye (dilution 1:20) for 30 min at room temperature. After this time, the dye was removed and the wells were rinsed with 1 mL of deionized water and then allowed to dry. The images were taken using a light microscope (Zeiss, Obercochem, Germany).

HEK-293 cells = test: Cytotoxicity over the five assays (MTT, NRU, TPC, LDH, BrdU); format: cell-based; conditions: Homo sapiens, HEK293, 72 h, read-out: IC50 values, range over the five assays
Procedure: as §1
The human neuroblastoma (SH-SY5H), hepatoma (HepG2) and kidney cells (HEK 293) cells were purchased from the American Type Culture Collection: ATCCCRL-2266,ATCC HB-8065 and ATCC CRL-1573, respectively. These cells were cultured in Minimum Essential Medium Eagle (MEME) (ATCC). […] Cytotoxicity was assessed after 72 h of exposure of the cells to the compounds. […]

[8] = Homo sapiens, read-out: inhibited concentration (IC50), TPC
[9] = Homo sapiens, read-out: inhibited concentration (IC50), MTT

C=C[C@]1(C)C[C@@H](OC(=O)CSCCN(CC)CC)[C@]2(C)[C@H](C)CC[C@]3(CCC(=O)[C@H]32)[C@@H](C)[C@@H]1O [T, tiamulin fumarate]
tiamulin concentration that inhibited proliferation (HEK 293 cells [1]; HEK-293, 72 h): 12.5 µg/mL
IC50 (HEK 293 cells [1]; Homo sapiens, HEK293, 72 h, read-out: inhibited concentration (IC50), TPC): 8.5 ± 0.6 µg/mL
tiamulin concentration that inhibited cell proliferation (HepG2 cells [2]): 50 µg/mL
IC50 (HepG2 cells [2]; [8]): 26.7 ± 1.4 µg/mL
tiamulin concentration that decreased total protein content / inhibited proliferation (SH-SY5Y cells [3]): 25 µg/mL
IC50 (SH-SY5Y cells [3]; [8]): 169 ± 3.3 µg/mL
tiamulin concentration that inhibited mitochondrial activity (HEK 293 cells [4]; HEK-293, 72 h): 25 µg/mL
IC50 (HEK 293 cells [4]; Homo sapiens, HEK293, 72 h, read-out: inhibited concentration (IC50), MTT): 27.5 ± 0.8 µg/mL
tiamulin concentration that inhibited mitochondrial activity (HepG2 cells [5]): 12.5 µg/mL
IC50 (HepG2 cells [5]; [9]): 27.4 ± 1.3 µg/mL
tiamulin concentration that inhibited mitochondrial activity (SH-SY5Y cells [6]; significant (p ≤ 0.05) vs negative control): 6.25 µg/mL
IC50 (SH-SY5Y cells [6]; [9]): 30.2 ± 1.8 µg/mL
changes in cell morphology [7]: detachment from the adhesion surface
IC50 (HEK-293 cells): 8.5 to 76.9 µg/mL

Reference: paper PMC11676896, “Protective Action of Cannabidiol on Tiamulin Toxicity in Humans—In Vitro Study” (International Journal of Molecular Sciences, 2024)
